Data: patent EP3539562A1, “IMMUNOTHERAPEUTIC PEPTIDES” (Eberhard Karls Universität Tübingen Medizinische Fakultät, priority 2018, dated 2019)
“Also recorded” adds a separate entry of the source.

Assays:
LN229 cells = assay: Acute cytotoxicity assay (cell viability, Cell titer blue); format: cell-based; details: Homo sapiens, LN-229, DMSO control
Method: (§1) LN229 and LNZ308 were seeded as 5,000 cells per well in 96 well plates one day before treatment initiation. All treatments were carried out in serum-free DMEM along with their respective controls, and cell viability measured at 72 h post initial treatment (hpt) using Cell titer blue solution (Promega, Madison, USA) as per manufacturer's instructions. The measured values were converted to percentage cell viability by normalizing each treatment to its respective control within the individual regimen.
(§2) The monotherapies with γ-irradiation and MeV effected dose responses as expected (Fig. 9) and in accordance with cell viability observed previously (Fig. 4). The CT-VT-RT initiated synergistic effect was retained when substituting TMZ by lomustine/CCNU. […] The cell viability and dose dependence in the non-synergistic regimens were similar to those previously observed in triple regimens using TMZ (Fig. 5).

LNZ308 cells = assay: as above; format: cell-based; details: Homo sapiens, DMSO control
Method: as §1, §2

GS8 cells = assay: as above; format: cell-based; details: DMSO controls
IFN-β = assay: ELISA of supernatants of treated LNZ308 cells; format: cell-based, human; details: LNZ308, CT-VT-RT with or without molecular inhibitors (BX795 10 µM, fludarabine 100 µM)
Method: LNZ308 cells were seeded as 3×10^6 cells per dish and treated with different regimens as described above, supernatants were harvested after 96 hpt and concentrated using Amicon Ultra-15 Ultracel-3K centrifugal filters (Merck Millipore, Billerica, USA) with subsequent determination of total protein concentration using Bradford protein assay (Bio-Rad Laboratories). The respective chemokine/cytokine concentrations were determined enzymatically per microgram of total protein using the respective DuoSet ELISA kits according to manufacturer's instructions (R&D Systems, Minneapolis, USA).

STAT1 = assay: qPCR mRNA expression in treated LNZ308 cells; format: cell-based, human; details: inhibitor applied after CT-VT-RT treatment
Method: RNA extractions were performed using the RNeasy mini kit (Qiagen) and reversely transcribed to cDNA using High-Capacity RNA-to-cDNA kit (Thermo Fisher Scientific) according to manufacturer's instructions. For each qPCR reaction, 20 ng of cDNA were amplified with custom designed primers (Supplementary Table 1) and qPCR Mastermix Plus for SYBR Green (Eurogentec, Liege, Belgium) using the 7500 Fast Real time PCR system (Thermo Fisher Scientific). Relative gene expression was determined using the ΔΔ-CT method versus the housekeeping gene ARF1.

phospho-STAT1 (Y701) = assay: Immunoblot analysis after CT-VT-RT with signalling inhibitors; format: cell-based, human; details: inhibitor added to CT-VT-RT (BX795 10 µM, fludarabine 100 µM)
Method: Cells of interest were lysed in lysis buffer containing 25 mM Tris hydrochloric acid (Tris-HCI), 120 mM sodium chloride (NaCI), 5 mM ethylenediaminetetraacetic acid (EDTA), 0.5% NP-40 and phosphatase inhibitor cocktails (Sigma Aldrich). Proteins were separated on 4-12% polyacrylamide gels (Thermo Fisher Scientific) followed by transfer to PVDF membranes (Thermo Fisher Scientific). […] Antibody against TRAIL ([…]), LC3A ([…]) and β-tubulin (9F3) were purchased from Cell Signalling (Cell Signalling, Dan-vers, USA) and used at a dilution of 1:1,000. Anti-rabbit and Anti-mouse horseradish peroxidase coupled secondary antibodies were purchased from Abcam and used at a concentration of 1:5,000. TBK1/IKKε inhibitor, BX795 was purchased from Invivogen (Invivogen, San Diego, USA) and used at a concentration of 10 μM.

[1] = target: T1, interferon regulatory factor 1 (IRF1) (UniProt P10914 1-325); assay: proximity ligation assay in LNZ308 cells treated with CT-VT-RT plus fludarabine
T1 sequence (looked up): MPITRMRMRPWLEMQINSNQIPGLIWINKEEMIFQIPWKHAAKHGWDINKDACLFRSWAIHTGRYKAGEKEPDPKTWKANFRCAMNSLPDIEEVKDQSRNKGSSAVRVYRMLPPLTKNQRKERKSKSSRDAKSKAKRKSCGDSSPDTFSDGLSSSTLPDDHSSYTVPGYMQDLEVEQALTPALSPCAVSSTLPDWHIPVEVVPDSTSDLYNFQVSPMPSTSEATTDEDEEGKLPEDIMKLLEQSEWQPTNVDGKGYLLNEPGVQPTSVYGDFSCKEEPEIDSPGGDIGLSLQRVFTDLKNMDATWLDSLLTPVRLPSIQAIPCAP

Molecule: O=NN(CCCl)C(=O)NC1CCCCC1 [CCNU, lomustine]
- EC50 (LN229 cells): 16 µM
- EC50 (LNZ308 cells): 45 µM

Molecule: Cn1nnc2c(C(N)=O)ncn2c1=O [TMZ, temozolomide]
- EC50 (GS8 cells): 250 µM

Molecule: O=C(NCCCNc1nc(Nc2cccc(NC(=O)N3CCCC3)c2)ncc1I)c1cccs1 [BX795]
- IFN-β protein (IFN-β): abolished; also recorded: complete loss of IFN-β production
- STAT1 transcription (STAT1): downregulated
- STAT1 protein phosphorylation (phospho-STAT1 (Y701)): downregulated; also recorded: complete loss of phospho-STAT1 (Y701)

B1: basic leucine zipper transcriptional factor ATF2-like protein (BATF2) (other, UniProt Q8N1L9 1-274, looked up)
chain: MHLCGGNGLLTQTDPKEQQRQLKKQKNRAAAQRSRQKHTDKADALHQQHESLEKDNLALRKEIQSLQAELAWWSRTLHVHERLCPMDCASCSAPGLLGCWDQAEGLLGPGPQGQHGCREQLELFQTPGSCYPAQPLSPGPQPHDSPSLLQCPLPSLSLGPAVVAEPPVQLSPSPLLFASHTGSSLQGSSSKLSALQPSLTAQTAPPQPLELEHPTRGKLGSSPDNPSSALGLARLQSREHKPALSAATWQGLVVDPSPHPLLAFPLLSSAQVHF
- binding result [1]: binds
